Measured values taken from ChEMBL document CHEMBL1201862, “PubChem BioAssay data set” (2004).
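1) Cells in 96-well plates. 2) Compound, 48 h, 5 concentrations. 3) Linear interpolation between surrounding doses. 4) Unreached endpoint = highest concentration. GI50 is the concentration that inhibits growth by half.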 Activity calls are given as the source filed them. Cut-off read from the data, not from the text of the source: active = GI50 up to about 1.1 µM and inactive = higher.

Tests used:
Assay in all cases: growth of human tumour cells (NCI), 48 h
[1] = system: K562
[2] = system: SN12C
[3] = system: NCI-H460
[4] = system: RXF 393
[5] = system: NCI-H226
[6] = system: OVCAR-3
[7] = system: HT-29
[8] = system: HCT-116
[9] = system: TK-10
[10] = system: NCI-H522
[11] = system: SW-620
[12] = system: A498
[13] = system: U-251
[14] = system: M14
[15] = system: OVCAR-5
[16] = system: SK-MEL-28
[17] = system: PC-3
[18] = system: T47D

Measured: GI50

COC(=O)/C=C/C1C(C(=O)OC)C2(C(=O)OC)CCC1(C(=O)OC)N2 (stereo not drawn)
inactive: [1] > 100 µM | [2] > 100 µM | [3] > 100 µM | [4] > 100 µM | [5] > 100 µM | [6] > 100 µM | [7] > 100 µM | [8] > 100 µM | [9] > 100 µM | [10] > 100 µM | [11] > 100 µM | [12] > 100 µM | [13] > 100 µM | [14] > 100 µM | [15] > 100 µM

O=c1[nH]c2c3ccccc3ccc2c2cc3c(cc12)OCO3
inactive: [1] 38.5 µM | [2] > 100 µM | [3] > 100 µM | [4] 28.8 µM | [5] > 100 µM | [6] > 100 µM | [7] > 100 µM | [8] 83.2 µM | [9] > 100 µM | [10] 42.5 µM | [16] > 100 µM | [11] 84.7 µM | [13] > 100 µM | [14] > 100 µM | [15] > 100 µM

CCCCCCCCNC(=O)SCCCC
inactive: [1] 34.4 µM | [2] 37.8 µM | [3] 28.4 µM | [4] 24.3 µM | [6] 49.5 µM | [7] 20.8 µM | [9] 29 µM | [10] 24.4 µM | [16] 38.2 µM | [11] 45.9 µM | [12] 45.5 µM | [13] 36.9 µM | [14] 33.8 µM | [15] 37.2 µM

OCc1ccc2c(c1)CC1(C2)Cc2cc3c(cc2C1O)CCC3 (stereo not drawn)
inactive: [1] 1.58 µM | [2] 3.22 µM | [17] 2.34 µM | [3] 3.28 µM | [4] 2.77 µM | [5] 7.31 µM | [6] 4.78 µM | [7] 3.27 µM | [8] 3.37 µM | [9] 21.9 µM | [10] 3.23 µM | [16] 6.34 µM | [11] 4.55 µM | [12] 4.44 µM | [13] 3.3 µM | [14] 3.4 µM | [18] 1.36 µM | [15] 18.9 µM

CCC(C(=O)c1ccccc1)C(CCCC(=O)Nc1c(C)cccc1C)N=O (stereo not drawn)
inactive: [1] > 100 µM | [2] > 100 µM | [3] > 100 µM | [5] > 100 µM | [6] > 100 µM | [7] > 100 µM | [8] > 100 µM | [9] > 100 µM | [10] > 100 µM | [16] > 100 µM | [11] > 100 µM | [12] > 100 µM | [13] > 100 µM | [14] > 100 µM | [15] > 100 µM

CC(C)C(=O)/C=C/c1ccccc1
inactive: [1] 33.7 µM | [2] 79.3 µM | [3] 50.6 µM | [4] > 100 µM | [6] 31 µM | [7] 53.5 µM | [8] 67.3 µM | [10] 31 µM | [16] > 100 µM | [11] 72.1 µM | [12] > 100 µM | [13] 61.2 µM | [14] > 100 µM | [15] > 100 µM

CCCCCCC(C)CC(CCCCCC)NCCOC(=O)c1ccc([N+](=O)[O-])cc1 (stereo not drawn)
inactive: [2] 10.7 µM | [5] 13.9 µM | [7] 4.04 µM | [8] 8.18 µM | [9] 10.6 µM | [10] 12.1 µM | [11] 12.8 µM | [12] 18.4 µM | [13] 11.1 µM | [18] 10.7 µM | [15] 18.5 µM

Cc1sc(Nc2ccc(Nc3nc(-c4ccccc4)c(C)s3)cc2)nc1-c1ccccc1
inactive: [1] 18.6 µM | [2] 31.3 µM | [17] 16.6 µM | [3] 18.2 µM | [4] 8.67 µM | [5] 63.1 µM | [6] > 100 µM | [7] 60 µM | [8] 62.2 µM | [9] 57.8 µM | [10] 35.4 µM | [16] > 100 µM | [11] 40.2 µM | [12] 21.8 µM | [13] 13.7 µM | [14] 61.2 µM | [18] 8.95 µM | [15] > 100 µM

CSc1nc(O)c(C#N)c(-c2ccccc2)n1
inactive: [1] > 100 µM | [2] > 100 µM | [17] > 100 µM | [3] > 100 µM | [4] > 100 µM | [5] > 100 µM | [6] > 100 µM | [7] > 100 µM | [8] > 100 µM | [9] > 100 µM | [10] 53.1 µM | [16] > 100 µM | [11] > 100 µM | [12] > 100 µM | [13] > 100 µM | [14] > 100 µM | [18] 64.9 µM | [15] > 100 µM

Cn1ccnc1Sc1ccc(/C=N\NC(=O)c2cccc(F)c2)cc1[N+](=O)[O-]
inactive: [1] > 100 µM | [2] 50.1 µM | [17] 24 µM | [3] > 100 µM | [4] 34.8 µM | [5] > 100 µM | [6] 50 µM | [7] > 100 µM | [8] 83.9 µM | [9] > 100 µM | [10] 24.7 µM | [16] 79.4 µM | [11] > 100 µM | [12] 29.8 µM | [13] 21.1 µM | [14] > 100 µM | [18] 36.1 µM | [15] > 100 µM

CC1(C)CC(=O)C2=C(C1)N(c1ccccc1)C1(O)C=CC(O)=C3C(=O)c4ccccc4C(=O)C321 (stereo not drawn)
inactive: [1] 14 µM | [2] 28.7 µM | [17] 26.2 µM | [3] 26.3 µM | [4] 19.8 µM | [5] 18.7 µM | [6] 37.8 µM | [7] 21.2 µM | [8] 61.4 µM | [9] 24.4 µM | [10] 20.3 µM | [16] 17.8 µM | [13] 32.9 µM | [14] 40.5 µM | [18] 45.3 µM | [15] 42.8 µM

CC1(C)S[C@@H]2[C@H](NC(=O)[C@H](N)c3ccccc3)C(=O)N2[C@H]1C(=O)O [AMPICILLIN]
inactive: [2] > 100 µM | [17] > 100 µM | [3] > 100 µM | [6] > 100 µM | [7] > 100 µM | [8] > 100 µM | [9] > 100 µM | [10] 40.1 µM | [16] > 100 µM | [11] > 100 µM | [13] > 100 µM | [14] > 100 µM | [18] > 100 µM | [15] > 100 µM

CN1C(=O)C(=CNc2ccc(Cl)cc2Cl)C(=O)N(C)C1=O
inactive: [1] > 100 µM | [2] > 100 µM | [17] > 100 µM | [3] > 100 µM | [4] > 100 µM | [5] > 100 µM | [6] > 100 µM | [7] > 100 µM | [8] > 100 µM | [9] > 100 µM | [10] > 100 µM | [11] > 100 µM | [12] > 100 µM | [13] > 100 µM | [14] > 100 µM | [18] > 100 µM | [15] > 100 µM
